The structures appear in SMILES notation. Where only a bound is given, the exact number is not on record here.

The values that follow come from US7381746B2, “2-Aminobicyclo[3.1.0]hexane-2,6-dicarboxylic acid derivative” (Taisho Pharmaceutical Co., Ltd., priority 2003, dated 2008).

With `N[C@]1(C(=O)O)[C@H]2[C@@H](C[C@H]1SCc1cccs1)[C@]2(F)C(=O)O` [Compound 1, (1R,2S,3R,5R,6R)-2-amino-3-(thiophene-2-ylmethylsulfanyl)-6-fluorobicyclo[3.1.0]hexane-2,6-dicarboxylic acid], the melting point was greater than 230 °C. Under `N[C@]1(C(=O)O)[C@H]2[C@@H](C[C@H]1SCc1ccccc1-c1ccccc1)[C@]2(F)C(=O)O` [Compound 2, (1R,2S,3R,5R,6R)-2-amino-3-(2-phenylbenzylsulfanyl)-6-fluorobicyclo[3.1.0]hexane-2,6-dicarboxylic acid] stands greater than 230 °C. Under `COc1ccc(CS[C@@H]2C[C@@H]3[C@H]([C@]2(N)C(=O)O)[C@@]3(F)C(=O)O)cc1` [Compound 3, (1R,2S,3R,5R,6R)-2-amino-3-(4-methoxybenzylsulfanyl)-6-fluorobicyclo[3.1.0]hexane-2,6-dicarboxylic acid] stands greater than 240 °C. For the molecule `N[C@]1(C(=O)O)[C@H]2[C@@H](C[C@H]1SCc1ccc(F)cc1)[C@]2(F)C(=O)O` [Compound 4, (1R,2S,3R,5R,6R)-2-amino-3-(4-fluorobenzylsulfanyl)-6-fluorobicyclo[3.1.0]hexane-2,6-dicarboxylic acid], the melting point was greater than 243 °C. Under `CC(C)(C)c1ccc(CS[C@@H]2C[C@@H]3[C@H]([C@]2(N)C(=O)O)[C@@]3(F)C(=O)O)cc1` [Compound 5, (1R,2S,3R,5R,6R)-2-amino-3-(4-t-butylbenzylsulfanyl)-6-fluorobicyclo[3.1.0]hexane-2,6-dicarboxylic acid] stands greater than 271 °C; under `N[C@]1(C(=O)O)[C@H]2[C@@H](C[C@H]1SCc1cccc(C(F)(F)F)c1)[C@]2(F)C(=O)O` [Compound 6, (1R,2S,3R,5R,6R)-2-amino-3-(3-trifluoromethylbenzylsulfanyl)-6-fluorobicyclo[3.1.0]hexane-2,6-dicarboxylic acid], greater than 271 °C. Then `N[C@]1(C(=O)O)[C@H]2[C@@H](C[C@H]1SCc1ccc3ccccc3c1Br)[C@]2(F)C(=O)O` [Compound 7, (1R,2S,3R,5R,6R)-2-amino-3-(1-bromo-naphthalene-2-ylmethylsulfanyl)-6-fluorobicyclo[3.1.0]hexane-2,6-dicarboxylic acid], with greater than 280 °C; and `N[C@]1(C(=O)O)[C@@H]2[C@@H](C[C@H]1SCc1ccc(Cl)c(Cl)c1)[C@H]2C(=O)O` [Compound 8, (1R,2S,3R,5R,6R)-2-amino-3-(3,4-dichlorobenzylsulfanyl)-bicyclo[3.1.0]hexane-2,6-dicarboxylic acid], with greater than 289 °C. Take `N[C@]1(C(=O)O)[C@H]2[C@@H](C[C@H]1SCc1ccc(Cl)c(Cl)c1)[C@]2(F)C(=O)O` [Compound 9, (1R,2S,3R,5R,6R)-2-amino-3-(3,4-dichlorobenzylsulfanyl)-6-fluorobicyclo[3.1.0]hexane-2,6-dicarboxylic acid]: the melting point was greater than 220 °C.

Molecule `N[C@]1(C(=O)O)[C@H]2[C@@H](C[C@H]1Sc1ccc(Cl)c(Cl)c1)[C@]2(F)C(=O)O` [Compound 12, (1R,2S,3R,5R,6R)-2-amino-3-(3,4-dichlorophenylsulfanyl)-6-fluorobicyclo[3.1.0]hexane-2,6-dicarboxylic acid] registered a melting point greater than 235 °C. As for `N[C@]1(C(=O)O)[C@H]2[C@@H](C[C@H]1SCc1c(F)ccc(Cl)c1F)[C@]2(F)C(=O)O` [Compound 13, (1R,2S,3R,5R,6R)-2-amino-3-(3-chloro-2,6-difluorobenzylsulfanyl)-6-fluorobicyclo[3.1.0]hexane-2,6-dicarboxylic acid], the melting point was greater than 234 °C. Under `CC(S[C@@H]1C[C@@H]2[C@H]([C@]1(N)C(=O)O)[C@@]2(F)C(=O)O)c1ccccc1` (stereo partly drawn) [Compound 15, (1R,2S,3R,5R,6R)-2-amino-3-(1-phenyl-ethylsulfanyl)-6-fluorobicyclo[3.1.0]hexane-2,6-dicarboxylic acid] stands greater than 307 °C. Then `N[C@]1(C(=O)O)[C@H]2[C@@H](C[C@H]1SC(c1ccc(F)cc1)c1ccc(F)cc1)[C@]2(F)C(=O)O` [Compound 16, (1R,2S,3R,5R,6R)-2-amino-3-[bis-(4-fluorophenyl)methylsulfanyl]-6-fluorobicyclo[3.1.0]hexane-2,6-dicarboxylic acid], with greater than 243 °C; and `N[C@@H]1C[C@@H]2[C@H]([C@]1(N)C(=O)O)[C@@]2(F)C(=O)O` [Compound 17, (1R,2R,3R,5R,6R)-2,3-diamino-6-fluorobicyclo[3.1.0]hexane-2,6-dicarboxylic acid], with greater than 256 °C; and `N[C@]1(C(=O)O)[C@H]2[C@@H](C[C@H]1NCc1ccc(Cl)c(Cl)c1)[C@]2(F)C(=O)O` [Compound 18, (1R,2R,3R,5R,6R)-2-amino-3-(3,4-dichlorobenzylamino)-6-fluorobicyclo[3.1.0]hexane-2,6-dicarboxylic acid], with greater than 190 °C.
